The record followed here is patent US7314620B2, “Methods for diagnosis and treatment of PH domain signal transduction disorders” (New York University, priority 1995, dated 2008).

The target of test [1] is T1, Dyn-PH (PH domain of dynamin) (Homo sapiens, UniProt Q05193).
T1 construct: The PH domains from PLC-δ1, and dynamin, as well as the N-terminal PH domain of pleckstrin; made in house; host or cells: Escherichia coli (T7 system)
T1 sequence (Q05193 519-625 limits assumed): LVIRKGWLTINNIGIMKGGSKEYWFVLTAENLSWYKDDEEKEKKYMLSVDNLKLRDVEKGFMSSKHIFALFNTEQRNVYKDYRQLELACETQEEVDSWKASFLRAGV
Kind of test: Gel filtration of 3H-labeled IP3 with PH domain. The format is binding. Particulars: PH domain 10 μM, IP3 20 μM. As to the method:
(§1) For gel-filtration studies, PH domain at 10 μM was mixed with 20 μM IP3, containing 100 nCi of the appropriate ^3H-labeled isomer. A 200 μl sample was applied to a BioRad BiogelP6 desalting column, and 40 fractions of 300 μl were collected. A Bio-Rad protein assay was performed on […] of each fraction to determine the elution position of the protein, and scintillation counting of the remainder was used to detect the elution positions of IP3. Experiments were performed in either 50 mM MOPS, 100 mM NaCl, pH 6.8, or 100 mM NH4OAc, pH 6.8.
For orientation: In gel filtration, larger molecules generally elute earlier.

Test [2] deals with T2, PlecN-PH (N-terminal PH domain of pleckstrin) (Homo sapiens, UniProt P08567).
T2 construct: residues 1-110 of pleckstrin (PlecN-PH); initiator methionine (N); made in house; host or cells: Escherichia coli (pET11a, T7 system)
T2 sequence (P08567 1-110): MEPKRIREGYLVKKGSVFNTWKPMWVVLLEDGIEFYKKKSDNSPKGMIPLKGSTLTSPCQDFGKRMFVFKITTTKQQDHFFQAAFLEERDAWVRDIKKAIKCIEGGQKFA
Kind of test: Gel filtration of 3H-labeled IP3 with PH domain. The format is binding. Particulars: PH domain 10 μM, IP3 20 μM. How it is done:
as §1

In test [3] the target is T3, PLCδ-PH (Rattus norvegicus, UniProt P10688).
T3 construct: initiator methionine (N); made in house; host or cells: Escherichia coli (pET11a, T7 system)
T3 sequence (P10688 20-136): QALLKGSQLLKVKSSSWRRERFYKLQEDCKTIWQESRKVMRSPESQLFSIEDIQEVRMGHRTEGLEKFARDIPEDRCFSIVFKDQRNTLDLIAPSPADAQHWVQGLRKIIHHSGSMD
Kind of test: Gel filtration of 3H-labeled IP3 with PH domain. The format is binding. Particulars: PH domain 10 μM, IP3 20 μM. How it is done: as §1

The target of test [4] is T3, PLCδ-PH. Put plainly: Spin-column competition assay for 3H-I(145)P3 binding to PLCδ-PH. Particulars: for competition for I(145)P3 binding by lipid vesicles: lipid at 5% in DMPC vesicles or pure DMPC, assuming 50% of lipid on the surface. How it is done: A spin-column based competition assay was employed to determine relative affinities of other inositol polyphosphates for PLCδ-PH. […] The sample (40 μl) was then applied to a Biogel P6 gel filtration spin-column. […] Each curve represents the mean of two or more experiments.
The sample was then applied to a pre-spun 1 ml spin-column containing Biogel P6 desalting medium. The spin-column was then centrifuged for 4 minutes at 900 g. Essentially all of the protein was determined to pass through the column under these conditions, and no significant counts were seen to pass through the column in the absence of protein. After spinning, all of the material that passed through the column was added to scintillation fluid for counting. Counts were normalized to those obtained in the absence of competitor, and plotted as fraction of maximal binding. […]
Values for which a precise number is given represent the mean of at least two experiments.

Test [5] deals with T4, PLCδ-PH (PH domain of rat PLC-δ1) (Rattus norvegicus, UniProt P10688).
T4 construct: initiator methionine (N); made in house; host or cells: Escherichia coli (pET11a, T7 system)
T4 sequence (P10688 20-136): T3 sequence (P10688 20-136)
Kind of test: Isothermal titration calorimetry of inositol polyphosphate / PIP2 vesicle binding to PLCδ-PH. As to the method:
The resulting titration curve was fit using Omega software (Wiseman et al., 1989).
All experiments utilized the OMEGA instrument from MicroCal (Wiseman, T. et al., Anal. Biochem. 179, 131-137, 1989), in the laboratory of Prof. Julian Sturtevant at Yale. Titrations were performed at 25° C. in 50 mM MOPS, 100 mM NaCl, pH 6.8 or 100 mM NH4OAc at pH 6.8. […] For each titration, PH domain solution was dialyzed exhaustively against the buffer used for dilution of highly concentrated stocks of ligand. Heats for dilution of the ligand solutions were determined in separate titrations of ligand into buffer solution present in the cell.
Higher concentrations were employed for weaker binding events. […] Stoichiometry, binding constant (Kβ) and ΔH were all allowed to float in the fitting procedure.
A titration curve such as that to an equation describing a simple-binding reaction (Wiseman, T. et al., Anal. Biochem. 179, 131-137, 1989). From this fit, values for the binding constant, stoichiometry and ΔH for the binding reaction are ascertained. […] Ferris, C. D. et al, Nature, 342, 87-89, 1989.
In general terms: ITC needs no label: the signal is the heat of the interaction.

Test [6] deals with any PH domain (PLCδ-PH, Dyn-PH, PlecN-PH). Put plainly: Centrifugation-based assay of PH domain binding to lipid vesicles. Particulars: lipid at 5% in DMPC vesicles. How it is done: Attempts to detect PH domain association with lipid vesicles were performed exactly as described by Harlan, J. E. et al., Nature 371, 168-170, 1994. In addition to using the BCA protein assay reagent, for which lipid blanks were rather high compared with the values expected for the protein concentrations employed, we also measured OD278 of the supernatants after addition of SDS in order to detect removal of protein upon pelleting vesicles. […] Initially, we performed a centrifugation-based assay, using the conditions described by Harlan, J. E. et al., Nature 371, 168-170, 1994. […] Similarly, we were unable to detect association of any of the PH domains with the same vesicles by using size-exclusion chromatography to separate protein and lipid. Any complexes between the PH domains and these vesicles therefore form with low affinity and/or have fast dissociation kinetics, such that they dissociate in the separation methods employed.

[7] abbreviates: ratio of molar excess for 50% competition to that of unlabeled I(145)P3, multiplied by 0.2 μM, read-out: KD (μM) by competition assay.
[8] abbreviates: from concentrations required to reduce 3H-I(145)P3 binding by 50%, read-out: KD from competition assay.

“And” between values parts separate entries of the source, which are not always exact repeats. Equal entries are not always repeated. “Also recorded” adds a separate entry of the source. Where two headings read alike, the source gives them in different places.

Take `O=P(O)(O)OC1C(O)C(O)C(OP(=O)(O)O)C(OP(=O)(O)O)C1O` (single isomer, unassigned) [D-I(134)P3]: the figures for the “binding detected by gel filtration” value (in test [1]; in test [2]; on PLCδ-PH [3]) were “neither Dyn-PH nor PlecN-PH was seen to bind; also recorded: Neither PlecN-PH nor Dyn-PH showed evidence of binding”, “neither Dyn-PH nor PlecN-PH was seen to bind; also recorded: Neither PlecN-PH nor Dyn-PH showed evidence of binding” and “no binding”, respectively. The Kd on PLCδ-PH [4] (setting [7]) is > 12 µM.

In the case of `O=P(O)(O)OC1C(O)C(O)C(OP(=O)(O)O)C(OP(=O)(O)O)C1O` (single isomer, unassigned) [D-I(245)P3], the Kd turned out to be 7.5 µM at PLCδ-PH [4] (setting [8]) and 4.7 µM at PLCδ-PH [4] (setting [7]).

`O=P(O)(O)O[C@H]1[C@H](O)[C@@H](O)[C@H](OP(=O)(O)O)[C@@H](O)[C@H]1O` [D-I(14)P2]: the Kd was > 50 µM at PLCδ-PH [4] (setting [8]) and > 12 µM at PLCδ-PH [4] (setting [7]).

On to `O=P(O)(O)O[C@@H]1C(O)[C@@H](OP(=O)(O)O)[C@@H](O)C(O)[C@H]1O` (stereo partly drawn) [D-I(24)P2], for which the Kd on PLCδ-PH [4] (setting [7]) is > 12 µM.

For the compound `O=P(O)(O)O[C@@H]1[C@@H](O)[C@H](O)[C@H](O)[C@H](O)[C@H]1OP(=O)(O)O` [D-I(45)P2], the Kd on PLCδ-PH [4] (setting [8]) was > 50 µM; at PLCδ-PH [4] (setting [7]) it was > 12 µM.

As for `O=P(O)(O)O[C@H]1[C@H](OP(=O)(O)O)[C@@H](OP(=O)(O)O)[C@H](O)[C@@H](O)[C@H]1OP(=O)(O)O` [D-I(1256)P4], the dissociation constant Kd on PLCδ-PH [4] (setting [7]) came to 12 µM.

Turning to `O=P(O)(O)O[C@H]1[C@H](O)[C@@H](OP(=O)(O)O)[C@H](OP(=O)(O)O)[C@@H](OP(=O)(O)O)[C@H]1O` [D-I(1345)P4], on PLCδ-PH [4] (setting [7]), the Kd was > 2 µM.

In the case of `O=P(O)(O)O[C@@H]1[C@@H](O)[C@H](OP(=O)(O)O)[C@@H](OP(=O)(O)O)[C@@H](O)[C@H]1OP(=O)(O)O` [D-I(1346)P4], the Kd on PLCδ-PH [4] (setting [7]) is 5.3 µM.

As to `O=P(O)(O)O[C@H]1[C@H](OP(=O)(O)O)[C@@H](OP(=O)(O)O)[C@@H](O)[C@@H](O)[C@@H]1OP(=O)(O)O` [D-I(3456)P4], the Kd at PLCδ-PH [4] (setting [7]) is 3.2 µM.

For the compound `CCCCCCCCCCCCCC(=O)OC[C@H](COP(=O)([O-])OCC[N+](C)(C)C)OC(=O)CCCCCCCCCCCCC` [DMPC, dimyristoylphosphatidylcholine], the “competition for I(145)P3 binding by lipid vesicles” value (“competition for I(145)P3 binding” for short) is recorded as “did not compete” at PLCδ-PH [4] and “no detectable competition” at PLCδ-PH [4] (listed as PC).

Consider `O=P(O)(OCC(O)CO)OC1C(O)C(O)C(O)C(O)C1O` (centres unmarked) [GPI, 1-(a-glycerophosphoryl)-inositol], for which the equilibrium dissociation constant (Kd) at PLCδ-PH [4] (setting [7]) is > 60 µM.

As to `O=P(O)(O)O[C@@H]1[C@@H](O)[C@@H](O)[C@@H](OP(=O)(O)OC[C@H](O)CO)[C@H](O)[C@H]1OP(=O)(O)O` [GPIP2, 1-(a-glycerophosphoryl)-D-inositol-4,5-bisphosphate], the Kd at PLCδ-PH [4] (PIP2: 5% in DMPC vesicles, assuming 50% available, read-out: KD from competition assay) is 0.4 µM; at PLCδ-PH [4] (setting [7]) it was 0.45 µM; in test [5] (ITC, read-out: KD (dissociation constant)), 0.4 µM; in test [5] (individual titrations, 25° C, pH 6.8, read-out: KD), 0.32 µM and 0.4 µM; in test [5] (mean of the titrations, read-out: KD) it was 0.36 ± 0.06 µM. The “binding weaker than I(145)P3” value on PLCδ-PH [4] (relative to I(145)P3 binding to PLCδ-PH) is “two-fold”. Moreover, the “binding affinity in words” value in test [5] (PIP2 in vesicles) is on record as “submicromolar affinities”. The ΔG in test [5] (individual titrations, 25° C) is -8.86 kcal/M and -8.72 kcal/M; in test [5] (mean of the titrations), -8.79 ± 0.10 kcal/M. In addition, the ΔH in test [5] (individual titrations, 25° C) was -13.5 ± 0.1 kcal/M and -13.2 ± 0.1 kcal/M; in test [5] (mean of the titrations) it was -13.4 ± 0.2 kcal/M. For the same compound, the ΔS in test [5] (individual titrations, 25° C) is −15.6 cal · M^−1 · K^−1 and −15.2 cal · M^−1 · K^−1; in test [5] (mean of the titrations), −15.4 ± 0.3 cal · M^−1 · K^−1. Moreover, the Stoichiometry n was 1.08 ± 0.01 and 1.14 ± 0.01 in test [5] (individual titrations, 25° C, pH 6.8, quoted for IPn as the ligand, PIP2 in vesicles assuming 50% available); 1.11 ± 0.04 in test [5] (mean of the titrations).

As for `O=S(=O)(O)OC1C(OS(=O)(=O)O)C(OS(=O)(=O)O)C(OS(=O)(=O)O)C(OS(=O)(=O)O)C1OS(=O)(=O)O` (centres unmarked) [I(SO4)6, inositol hexasulfate], on PLCδ-PH [4] (setting [7]), the Kd is > 60 µM.

As to `O=P(O)(O)OC1[C@@H](O)[C@H](O)C(O)[C@H](O)[C@H]1O` (some centres unmarked) [I-2-P, inositol-2-phosphate], on PLCδ-PH [4] (setting [7]), the Kd is > 60 µM.

As to `O=P(O)(O)O[C@@H]1[C@@H](O)[C@H](OP(=O)(O)O)[C@@H](OP(=O)(O)O)[C@H](O)[C@@H]1O` [L-I(145)P3], the dissociation constant Kd was found to be 13 µM on PLCδ-PH [4] (setting [8]) and 8.1 µM at PLCδ-PH [4] (setting [7]).

On to phosphatidylinositol [PI], for which the binding to vesicles result in test [6] was “no binding”. Also, at PLCδ-PH [4], the “competition for I(145)P3 binding” value is “no detectable competition; also recorded: did not compete”.

As to phosphatidylserine [PS], the binding to vesicles entry in test [6] is given as “no binding”. Moreover, at PLCδ-PH [4], the “competition for I(145)P3 binding” value is “no detectable competition; also recorded: did not compete”.

What is called Kd is a measure of binding affinity in units of concentration.
